Assay: Inhibition of Ha-ras polymerase-chain reaction product

COC(=O)CCOc1cc2c(cc1OC)C(=O)N1CCC[C@H]1C=N2 [3-((S)-7-Methoxy-5-oxo-2,3,5,11a-tetrahydro-1H-benzo[e]pyrrolo[1,2-a][1,4]diazepin-8-yloxy)-propionic acid methyl ester]
IC50: > 300 µM

Source: BindingDB's records for doi:10.1016/S0960-894X(98)00544-7 (University of Ferrara, 1999)
